The source of these data is patent publication US20210387964A1, “HETEROARYLAMINOQUINOLINES AND ANALOGUES” (Bayer Aktiengesellschaft, priority 2018, published 2021).

A short description of this series: log P by HPLC on reversed-phase column (C 18), EEC Directive 79/831 Annex V.A8. Type of series: physicochemical. As for the experimental part: In table 1, the log P values were determined in accordance with EEC Directive 79/831 Annex V.A8 by HPLC (High Performance Liquid Chromatography) on a reversed-phase column (C 18), using the method described below: […] If more than one Log P value is available within the same method, all the values are given and separated by “;”.

In general, logP refers to a log measure of how a compound divides between an organic and an aqueous phase. The low end stands for lower lipophilicity, the high end for higher lipophilicity. What is called chromatographic logP is a lipophilicity value derived from retention on a column.

Read-outs that look alike come from different tables or passages of the source.

Take `Cc1nc2c(F)c(F)ccc2cc1Nc1cccnc1-c1ccnn1C` [I.16]: the logP is reported as 2.04.

In the case of `Cc1nc2c(F)c(F)ccc2cc1Cc1cscc1-c1ccnn1C` [I.38, 7,8-difluoro-2-methyl-3-{[4-(1-methyl-1H-pyrazol-5-yl)-3-thienyl]methyl}quinoline], the chromatographic logP was determined as 3.01.

As for `Cn1nccc1-c1sccc1Br` [IXe.01, 5-(3-bromo-2-thienyl)-1-methyl-1H-pyrazole], the chromatographic logP turned out to be 2.29.

The compound `CCn1nccc1-c1sccc1Nc1cnc2ccccc2c1C` [I.06] yielded a log partition coefficient (logP) of 1.60.

The compound `CCn1nccc1-c1sccc1Nc1cnc2c(F)cccc2c1` [I.11] showed a logP of 2.75.

In the case of `Cn1nccc1-c1ncccc1Nc1cnc2c(F)cccc2c1` [I.02], the logP amounted to 1.72.

With `Cc1nc2c(F)c(F)ccc2nc1Nc1cnccc1Cl` [IIc.01], the logP amounted to 2.41.

In turn, `CCCn1nccc1-c1c(C)cncc1Nc1cc2ccc(F)c(F)c2nc1C` [I.40] gave a lipophilicity (logP) of 2.11.

`CCn1nccc1-c1sccc1Nc1nc2ccccc2nc1C` [I.07] registered a logP of 2.80.

In turn, `CCn1nccc1-c1c(N)cncc1Cl` [XIc.03, 5-chloro-4-(1-ethyl-1H-pyrazol-5-yl)pyridin-3-amine] displayed a chromatographic logP of 1.3.

The compound `CCCn1nccc1-c1cnccc1Nc1nc2ccc(F)c(F)c2nc1C` [I.27] yielded a logP of 2.33.

With `Cc1nc2c(F)c(F)ccc2nc1Nc1cncnc1-c1ccnn1C` [I.19], the logP amounted to 2.00.

Take `CCCn1nccc1-c1ccncc1N` [XIc.01, 4-(1-propyl-1H-pyrazol-5-yl)pyridin-3-amine]: the chromatographic logP is 0.11.

`Cc1nc2c(F)c(F)ccc2cc1Cc1cccnc1-c1ccnn1C` [I.15] registered a logP of 2.17.

For the compound `CCn1nccc1-c1c(Cl)cncc1Nc1nc2ccc(F)c(F)c2nc1C` [I.32], the logP worked out at 3.06.

On to `CCn1nccc1-c1sccc1Nc1cnc2c(F)c(F)ccc2c1` [I.22], for which the logP amounted to 2.92.

`Cc1nc2c(F)c(F)ccc2cc1Cc1cscc1-c1ccsc1` [I.39] yielded a logP of 4.47.

As to `CCCn1nccc1-c1c(N)cncc1Cl` [XIc.05, 5-chloro-4-(1-propyl-1H-pyrazol-5-yl)pyridin-3-amine], the chromatographic logP amounted to 1.64.

With `CCCn1nccc1-c1c(Cl)cncc1Nc1cc2ccc(F)c(F)c2nc1C` [I.46], the logP came out at 3.20.

Consider `CCCn1nccc1-c1c(Cl)cncc1Nc1nc2ccc(F)c(F)c2nc1C` [I.35, N-[5-chloro-4-(1-propyl-1H-pyrazol-5-yl)pyridin-3-yl]-5,6-difluoro-3-methylquinoxalin-2-amine], for which the chromatographic logP was 3.44.

In turn, `CCn1nccc1-c1c(F)cncc1Nc1cc2ccc(F)c(F)c2nc1C` [I.28] had a lipophilicity (logP) of 2.60.

With `Cc1nc2c(F)c(F)ccc2cc1Nc1cncc(F)c1I` [IIc.02], the logP amounted to 2.94.

The compound `CCOCn1nccc1-c1ccsc1Cc1cc2ccc(F)c(F)c2nc1C` [I.48] gave a logP of 3.64.

Consider `CCn1nccc1-c1ccncc1Cl` [IXc.01, 3-chloro-4-(1-ethyl-1H-pyrazol-5-yl)pyridine], for which the chromatographic logP came out at 1.73.

`Cn1nccc1-c1ncccc1Nc1cnc2c(F)c(F)ccc2n1` [I.10] gave a logP of 2.13.

Compound `CCn1nccc1-c1c(Cl)cncc1Nc1cc2ccc(F)c(F)c2nc1C` [I.43] came in with a logP of 2.86.

`Fc1cccc2cc(Cc3sccc3Br)cnc12` [IIg.01] gave a logP of 3.50.

Take “3-bromo-2-(1-methyl-1H-pyrazol-5-yl)pyridine [IXa.01]”: under “HPLC, reversed-phase C 18, 40° C., 0.1% aqueous formic acid and acetonitrile, gradient 10% to 95% acetonitrile”, the logP is 1.53.

The compound `CCn1nccc1-c1sccc1Br` [IXe.02, 5-(3-bromo-2-thienyl)-1-ethyl-1H-pyrazole] came in with a chromatographic logP of 2.72.

`Cn1nccc1-c1cscc1Cc1cnc2c(F)cccc2c1` [I.36] displayed a lipophilicity (logP) of 2.49.

In turn, `CCn1nccc1-c1sccc1Nc1cc2ccc(F)c(F)c2nc1C` [I.25] registered a logP of 3.11.

The compound `CCn1nccc1-c1c(Nc2cc3ccc(F)c(F)c3nc2C)cncc1OC` [I.42] showed a log partition coefficient (logP) of 2.06.

Turning to `CCn1nccc1-c1c(N)cncc1OC` [XIc.02, 4-(1-ethyl-1H-pyrazol-5-yl)-5-methoxypyridin-3-amine], the chromatographic logP was determined as 0.08.

Take `Cc1c(Nc2ccsc2-c2ccnn2C)cnc2ccccc12` [I.03]: the logP was 1.39.

For the compound `Cc1nc2ccccc2nc1Nc1ccsc1-c1ccnn1C` [I.04], the logP was determined as 2.47.

On to `CCn1nccc1-c1c(F)cncc1Nc1cc2ccc(F)c(OC)c2nc1C` [I.41], for which the logP is 2.22.

`CCn1nccc1-c1sccc1Nc1nc2ccc(F)c(F)c2nc1C` [I.26] showed a logP of 3.27.

Compound `Cc1nc2c(F)c(F)ccc2cc1Cc1cccnc1-c1ccsc1` [I.18] had a logP of 2.05.

Turning to `CCCn1nccc1-c1c(N)cncc1OC` [XIc.04, 5-methoxy-4-(1-propyl-1H-pyrazol-5-yl)pyridin-3-amine], the chromatographic logP was found to be 0.45.

The compound `Fc1cccc2cc(Cc3cscc3Br)cnc12` [IIf.01] returned a logP of 3.36.

For the compound `CS(=O)(=O)N(c1cnc2c(F)cccc2c1)c1cccnc1Cl` [IIa.02], the log partition coefficient (logP) is recorded as 2.07.

Take `Cc1nc2c(F)c(F)ccc2cc1Cc1sccc1Br` [IIg.02]: the logP was 4.19.

`Cc1nc2c(F)c(F)ccc2cc1Cc1cccnc1Br` [IIa.01] had a logP of 2.92.

The compound `CCCn1nccc1-c1c(F)cncc1Nc1cc2ccc(F)c(OC)c2nc1C` [I.44] registered a logP of 2.51.

As to `Cn1nccc1-c1sccc1Nc1cnc2c(F)cccc2c1` [I.05], the logP worked out at 2.49.

Turning to `CCCn1nccc1-c1c(Nc2cc3ccc(F)c(F)c3nc2C)ccnc1Cl` [I.34], the logP is 2.82.

Consider `CCn1nccc1-c1sccc1Nc1cnc2c(F)c(F)ccc2n1` [I.23], for which the logP worked out at 3.29.

In turn, `Cc1nc2c(F)c(F)ccc2nc1Nc1ccsc1-c1ccnn1C` [I.24] yielded a logP of 2.90.

`Fc1cccc2cc(Cc3cscc3-c3ccsc3)cnc12` [I.37] gave a logP of 3.77.

Compound `Cn1nccc1-c1sccc1Nc1cnc2ccccc2c1Cl` [I.12] had a logP of 2.66.

`CCCn1nccc1-c1c(F)cncc1Nc1cc2ccc(F)c(F)c2nc1C` [I.31] gave a logP of 2.86.

The compound `CCCn1nccc1-c1c(Nc2cc3ccc(F)c(F)c3nc2C)cncc1OC` [I.45] returned a logP of 2.30.

As to `Cn1nccc1-c1ncccc1Nc1cnc2ccccc2c1Cl` [I.08], the logP was 2.02.

Compound `Cc1nc2c(F)c(F)ccc2cc1Nc1ccnc(Cl)c1-c1ccnn1C` [I.29, N-[2-chloro-3-(1-methyl-1H-pyrazol-5-yl)pyridin-4-yl]-7,8-difluoro-2-methylquinolin-3-amine] registered a chromatographic logP of 2.27.

In turn, `Cn1nccc1-c1sccc1Nc1cnc2c(F)c(F)ccc2n1` [I.14] yielded a logP of 2.94.

In the case of `Cc1nc2ccccc2nc1Nc1cccnc1-c1ccnn1C` [I.01], the logP is 1.88.

In turn, `Cc1nc2c(F)c(F)ccc2cc1Cc1cscc1Br` [IIf.02, 3-[(4-bromo-3-thienyl)methyl]-7,8-difluoro-2-methylquinoline] yielded a chromatographic logP of 4.

As to `Cn1nccc1-c1sccc1Nc1cnc2c(F)c(F)ccc2c1` [I.13, 7,8-difluoro-N-[2-(1-methyl-1H-pyrazol-5-yl)-3-thienyl]quinolin-3-amine], the chromatographic logP amounted to 2.71.

The compound `CCn1nccc1-c1c(Nc2nc3ccc(F)c(F)c3nc2C)cncc1OC` [I.30] came in with a log partition coefficient (logP) of 2.28.

Consider `Cc1nc2c(F)c(F)ccc2nc1Nc1cccnc1-c1ccnn1C` [I.17], for which the logP was 2.23.

For `CCCn1nccc1-c1c(Nc2nc3ccc(F)c(F)c3nc2C)cncc1OC` [I.33], the lipophilicity (logP) stood at 2.64.

In turn, `CCn1nccc1-c1sccc1Nc1cnc2ccccc2c1Cl` [I.20] showed a logP of 2.98.

`Cc1nc2c(F)c(F)ccc2cc1Nc1ccsc1-c1ccnn1C` [I.21] displayed a logP of 2.74.

For the compound `CCOCn1nccc1-c1ccsc1Cc1cnc2c(F)cccc2c1` [I.47], the logP stood at 3.10.

`Cn1nccc1-c1ncccc1Nc1cnc2c(F)c(F)ccc2c1` [I.09] showed a logP of 1.93.
